Results on five compounds are retold here after patent US20120258940A1, “METHOD FOR TREATING HAEMATOLOGICAL CANCERS” (priority 2009, published 2012).

The structures appear in SMILES notation.

Holding throughout (type): cell-based
The subject of assay [1] is multiple myeloma cell line KMS-11. As to the kind of experiment: Cell viability (CellTiter GLO), FGFR inhibitor + glucocorticoid combination, KMS-11. As to conditions: for CI of Cpd. + 100 nM Dex: 72 hours; for Synergy Score: Loewe Additivity model. How it is done: (§1) Cell viability was measured by CellTiter GLO. For the combination treatments in FIGS. 1 and 2, the Y axes were cell viability was normalized to the wells treated with dexamethasone alone.
(§2) All FGFR inhibitors were desolved in DMSO as a 10 mM stock. Serial dilutions, as indicated in each figure, were made as 3× solutions in culture medium before adding to the cell cultures. Dexamethasone and halometasone were dissolved in 100% ethanol as a 10 millimol master stock. Serial dilutions, as indicated in each figure, were made as 3× solutions in culture medium. Cell lines, cell culture and treatment:
(§3) KMS-11 and OPM-2 cell lines can be purchased from HSRRB (Japan) and DSMZ (Germany), respectively. Early passage KMS-11 and OPM-2 cell lines were cultured in RPMI-1640 (ATCC Catalog#30-2001) supplemented with 10% FBS for 1 or 2 passages before treatment. Twenty thousand cells were seeded in each well of a 96-well plate and grew for 24 hours. Cells were then treated in triplicate with vehicle, an FGFR inhibitor (Compound A, B), a glucocorticoid (Dexamethasone or halometasone) alone or a combination at indicated concentrations in 5% CO2 at 37 C for 72 hours. Viability was determined by CellTiter GLO (Promega, Cat#G755B) using identical method as described by the manufacturer. Data analysis:
(§4) Raw CellTiter GLO relative […] unit (RFU) values were acquired using a microplate reader (PerkinElmer Precisely, Perkin Elmer Life and Analytical Sciences). Data analysis was performed using the Chalice software developed by CombinatoRx (Zalicus Inc., Cambridge, Mass., USA). Specifically, the Loewe Additivity (ADD) model was used as the combination reference in the EXAMPLES.
In general terms: Cellular ATP, detected with luciferase, serves as a proxy for viable cell number.

For assay [2], the system named is multiple myeloma cell line OPM-2. As to the kind of experiment: Cell viability (CellTiter GLO), FGFR inhibitor + glucocorticoid combination, OPM-2. As to conditions: for CI of Cpd. + 100 nM Dex: 72 hours; for Synergy Score: Loewe Additivity model. How it is done:
as §1, §2, §3, §4

In assay [3] the test system is multiple myeloma cell lines. As to the kind of experiment: Inhibition of proliferation of multiple myeloma cell lines by combinations (cell line not specified). Particulars: with Dexamethasone. How it is done: as §2, §3
Raw CellTiter GLO relative […] unit (RFU) values were acquired using a microplate reader (PerkinElmer Precisely, Perkin Elmer Life and Analytical Sciences). Data analysis was performed using the Chalice software developed by CombinatoRx (Zalicus Inc., Cambridge, Mass., USA). […]

Where [4] appears, read: Cpd. 0.0001 nM + 100 nM dexamethasone.
[5] abbreviates: Cpd. 0.001 nM + 100 nM dexamethasone.
Setting [6] is: Cpd. 0.01 nM + 100 nM dexamethasone.
The mark [7] stands for this setting: Cpd. 0.1 nM + 100 nM dexamethasone.
[8] abbreviates: Cpd. 1 nM + 100 nM dexamethasone.
Setting [9] is: Cpd. 10 nM + 100 nM dexamethasone.
Setting [10] is: Cpd. 100 nM + 100 nM dexamethasone.
[11] abbreviates: Cpd. 1000 nM + 100 nM dexamethasone.
Setting [12] is: Cpd. 10000 nM + 100 nM dexamethasone.
Where [13] appears, read: in combination with Dexamethasone.

On to `CCN1CCN(c2ccc(Nc3cc(N(C)C(=O)Nc4c(Cl)c(OC)cc(OC)c4Cl)ncn3)cc2)CC1` [Compound A, 3-(2,6-dichloro-3,5-dimethoxy-phenyl)-1-{6-[4-(4-ethyl-perpazin-1-yl)-phenylamino]-pyrimidin-4-yl}-1-methyl urea], for which the “CI of Cpd. + 100 nM Dex” value in assay [1] (setting [4]) is on record as 6.10E−02; in assay [1] (setting [5]), 2.20E−02; in assay [1] (setting [6]), 9.00E−03; in assay [1] (setting [7]), 5.00E−03; in assay [1] (setting [8]), 1.00E−03; in assay [1] (setting [9]) it was 4.17E−05. The “CI of Cpd. + 100 nM Dex” value in assay [1] (setting [10]) amounted to 1.25E−06; in assay [1] (setting [11]), 1.21E−06; in assay [1] (setting [12]), 1.43E−12; in assay [2] (setting [4]), 1.39E−01; in assay [2] (setting [5]), 5.00E−02; in assay [2] (setting [6]) it was 4.90E−02. Moreover, the “CI of Cpd. + 100 nM Dex” value in assay [2] (setting [7]) was determined as 1.50E−02; in assay [2] (setting [8]) it was 1.10E−02; in assay [2] (setting [9]), 3.00E−03; in assay [2] (setting [10]) it was 7.00E−03; in assay [2] (setting [11]), 5.90E−02; in assay [2] (setting [12]) it was 4.40E−02. The “Chemical 1 concentration in the combination at 50% growth inhibition” value in assay [1] (setting [13]) is “A (1.5) mM”; in assay [1] (in combination with Sicorten), “A (4.2) mM”; in assay [2] (setting [13]) it was “A (0.03) mM”; in assay [2] (in combination with Sicorten), “A (1.6) mM”. The “Combination Index (CI) at 50% inhibition” value in assay [1] (setting [13]) amounted to 0.077 ± 0.001; in assay [1] (in combination with Sicorten), 0.220 ± 0.006; in assay [2] (setting [13]), 0.034 ± 0.003; in assay [2] (in combination with Sicorten), 0.282 ± 0.007. Besides, the Synergy call was “Very strong” in assay [1] (setting [13]), “Strong” in assay [1] (in combination with Sicorten), “Very strong” in assay [2] (setting [13]) and “Strong” in assay [2] (in combination with Sicorten). The “Synergy Score” value is reported as 35 in assay [1] (setting [13]), 10 in assay [1] (in combination with Sicorten), 29 in assay [2] (setting [13]) and 17 in assay [2] (in combination with Sicorten). Moreover, the “Combination effect on cell viability (figure legend)” value (“Combination effect on cell viability” for short) in assay [1] (with Sicorten), in assay [1] (with dexamethasone), in assay [2] (with Sicorten) and in assay [2] (with dexamethasone) was “synergistic effect” in each case. Also, the “Reduction by Dexamethasone of the concentration required to achieve 50% of inhibition of proliferation” value in assay [3] is “at least a million fold”.
Consider `CN1CCN(c2ccc3nc(-c4c(N)c5c(F)cccc5[nH]c4=O)[nH]c3c2)CC1` [Compound B, 4-amino-5-fluoro-3-[6-(4-methylpiperazin-yl)-1H-benzimidazol-2-yl]quinolin-2(1H)-one], for which the “CI of Cpd. + 100 nM Dex” value in assay [1] (setting [4]) turned out to be 2.71E−01; in assay [1] (setting [5]), 1.72E−01; in assay [1] (setting [6]) it was 1.73E−01; in assay [1] (setting [7]) it was 1.32E−01; in assay [1] (setting [8]), 1.23E−01; in assay [1] (setting [9]), 9.00E−03. The “CI of Cpd. + 100 nM Dex” value is given as 1.00E−03 in assay [1] (setting [10]); 4.00E−03 in assay [1] (setting [11]); 3.00E−03 in assay [1] (setting [12]); 1.64E+00 in assay [2] (setting [4]); 1.38E+00 in assay [2] (setting [5]); 1.17E+00 in assay [2] (setting [6]). For the same compound, the “CI of Cpd. + 100 nM Dex” value in assay [2] (setting [7]) is 1.10E+00; in assay [2] (setting [8]), 1.00E+00; in assay [2] (setting [9]) it was 7.94E−01; in assay [2] (setting [10]) it was 1.86E−01; in assay [2] (setting [11]) it was 5.80E−02; in assay [2] (setting [12]), 1.00E−03. In addition, the “Chemical 1 concentration in the combination at 50% growth inhibition” value in assay [1] (setting [13]) is “B (0.74) mM”; in assay [1] (in combination with Sicorten) it was “B (0.45) mM”; in assay [2] (setting [13]), “B (1.8) mM”; in assay [2] (in combination with Sicorten), “B (10) mM”. Moreover, the “Combination Index (CI) at 50% inhibition” value in assay [1] (setting [13]) was found to be 0.050 ± 0.004; in assay [1] (in combination with Sicorten), 0.371 ± 0.003; in assay [2] (setting [13]), 0.350 ± 0.010; in assay [2] (in combination with Sicorten), 0.281 ± 0.005. Moreover, the Synergy call is “Very strong” in assay [1] (setting [13]) and “Strong” in assay [2] (in combination with Sicorten). The “Synergy Score” value is 18 in assay [1] (setting [13]), 4 in assay [1] (in combination with Sicorten), 10 in assay [2] (setting [13]) and 14 in assay [2] (in combination with Sicorten). Also, the “Combination effect on cell viability” value in assay [1] (with Sicorten), in assay [1] (with dexamethasone), in assay [2] (with Sicorten) and in assay [2] (with dexamethasone) was “synergistic effect” throughout.
`CCN(CC)CCCCNc1ncc2cc(-c3cc(OC)cc(OC)c3)c(NC(=O)NC(C)(C)C)nc2n1` [Compound E, 1-tert-Butyl-3-[6-(3,5-dimethoxy-phenyl)-2-(4-diethylamino-butylamino)-pyrido[2,3-d]pyrimidin-7-yl]-urea, reference compound]: the “Combination effect on cell viability” value in assay [1] (with dexamethasone) and in assay [2] (with dexamethasone) was “synergistic effect” throughout.
Consider `C[C@@H]1C[C@H]2[C@@H]3CCC4=CC(=O)C=C[C@]4(C)[C@@]3(F)[C@@H](O)C[C@]2(C)[C@@]1(O)C(=O)CO` [Dexamethasone, reference compound], for which the “Chemical 2 concentration in the combination at 50% growth inhibition” value in assay [1] (in combination with Compound A) is on record as “(0.14) mM”; in assay [1] (in combination with Compound B) it was “(0.32) mM”; in assay [2] (in combination with Compound A), “(0.30) mM”; in assay [2] (in combination with Compound B), “(0.30) mM”.
In the case of `C[C@@H]1C[C@H]2[C@@H]3C[C@H](F)C4=CC(=O)C(Cl)=C[C@]4(C)[C@@]3(F)[C@@H](O)C[C@]2(C)[C@@]1(O)C(=O)CO` [Sicorten, halometasone, reference compound], the “Chemical 2 concentration in the combination at 50% growth inhibition” value is “Sicorten (0.01) mM” in assay [1] (in combination with Compound A), “Sicorten (0.02) mM” in assay [1] (in combination with Compound B), “Sicorten (0.03) mM” in assay [2] (in combination with Compound A) and “Sicorten (0.02) mM” in assay [2] (in combination with Compound B).
